Experimental data from patent US20230023463A1, “COMPOSITION FOR PROMOTING HAIR THICKENING, COMPOSITION FOR SUSTAINING GROWTH PHASE IN HAIR CYCLE AND COMPOSITION FOR PROMOTING VEGF PRODUCTION, COMPOSITION FOR PROMOTING TRANSITION FROM RESTING PHASE TO GROWTH PHASE IN HAIR CYCLE AND COMPOSITION FOR PROMOTING FGF7 PRODUCTION, AND COMPOSITION FOR …” (priority 2020, published 2023).

Tests used:
Format in all cases: cell-based
[1] = system: VEGF production in hair papilla cells; test: VEGF production in hair papilla cells (ELISA of culture supernatant); conditions: human hair papilla cells, cultured 3 days, vs control
Procedure: Using a papilla cell growth medium (PCGM) (Toyobo Co., Ltd.), human hair papilla cells (Toyobo Co., Ltd.) were cultured for 4 days on a collagen-coated dish, and seeded on a collagen-coated 48 well plate at a cell density of 1.2×10^4 cells/0.3 mL/well. The cells were cultured for one day in a carbon dioxide incubator (5 volume % carbon dioxide, 37° C.), and used for the evaluation of the VEGF production amount.
For the evaluation of the VEGF production amount, 20 kinds of amino acids were mixed at the composition shown in Table 1, the components other than amino acids were composed as in Dulbecco's modified Eagle medium (DMEM), glucose was added at 1 g/L, and the resulting medium was used as an evaluation medium.
L-citrulline, L-tryptophan, and L-glutamine were respectively dissolved in the evaluation medium to prepare each solution.
In the above-described hair papilla cell culture medium on the collagen-coated plate, the medium was replaced with the evaluation medium, the above-described respective solutions of L-citrulline, L-tryptophan, and L-glutamine were added at a given concentration, and the cells were cultured for 3 days at 37° C., 5 volume % carbon dioxide (n=4 for L-citrulline, L-tryptophan, and L-glutamine at each addition concentration).
(§1) Then, the supernatant of the culture medium was collected, centrifuged at 1500 rpm, and the supernatant was collected and cryopreserved at −30° C.
Similar culture and treatment were performed without adding each solution of L-citrulline, L-tryptophan, and L-glutamine and used as the control.
The concentration of VEGF in the supernatant of the culture was measured by thawing the collected supernatant and using the VEGF Enzyme-Linked ImmunoSorbent Assay (ELISA) kit (Abcam Plc.).
The measurement results were converted to relative values (%) with the VEGF concentration in the control as 100, and shown as mean±standard error in FIGS. 1 to 3.

human hair papilla cells [2] = test: Proliferation of hair papilla cells, citrulline (Cell Counting kit-8); conditions: 2 mM, cultured one day, P<0.01, FIG. 5
Procedure: In the same manner as in Experimental Example 1, human hair papilla cells were cultured for 4 days, and seeded on a collagen-coated 96 well plate at a cell density of 2.5×10^3 cells/0.1 mL/well. The cells were cultured for one day in a carbon dioxide incubator (5 volume % carbon dioxide, 37° C.), and used for the evaluation of the proliferation of hair papilla cells. For the evaluation of the proliferation of hair papilla cells, the same evaluation medium as used in Experimental Example 1 was used.
L-citrulline was dissolved in the evaluation medium to prepare a solution.
In the above-mentioned hair papilla cell culture medium on the collagen-coated plate, the medium was replaced with the evaluation medium, the above-mentioned solution of L-citrulline was added to a concentration of 2 mM, and the cells were cultured for one day at 37° C., 5 volume % carbon dioxide (n=7).
Then the Cell Counting kit-8 (DOJINDO LABORATORIES) was added to each well by 10 μL, the plate was placed in a carbon dioxide incubator (5 volume % carbon dioxide, 37° C.) for 2 hr, and the absorbance at 450 nm was measured using a microplate reader.
Similar culture and treatment were performed without adding the solution of L-citrulline and used as the control.
The measurement results were converted to relative values (%) with the absorbance in the control as 100, and shown as mean±standard error in FIG. 5.

[3] = system: FGF7 production in hair papilla cells; test: FGF7 production in hair papilla cells (ELISA of culture supernatant); conditions: human hair papilla cells, cultured 3 days, vs control, P<0.05 or P<0.01, FIG. 4
Procedure: In the same manner as in Experimental Example 1, human hair papilla cells were cultured for 4 days, and seeded on a collagen-coated 48 well plate at a cell density of 1.2×10^4 cells/0.3 mL/well. The cells were cultured for one day in a carbon dioxide incubator (5 volume % carbon dioxide, 37° C.), and used for the evaluation of the FGF7 production amount. For the evaluation of the FGF7 production amount, the same evaluation medium as in Experimental Example 1 was used.
L-ornithine was dissolved in the evaluation medium to prepare a solution.
In the above-mentioned hair papilla cell culture medium on the collagen-coated plate, the medium was replaced with the evaluation medium, the above-mentioned solution of L-ornithine was added at a given concentration, and the cells were cultured for 3 days at 37° C., 5 volume % carbon dioxide (n=3 at each addition concentration).
Similar culture and treatment were performed without adding the solution of L-ornithine, and used as the control.
as §1
The concentration of FGF7 in the supernatant of the culture was measured by thawing the collected supernatant and using the FGF7 Enzyme-Linked ImmunoSorbent Assay (ELISA) kit (Abcam Plc.). […]

human hair papilla cells [4] = test: Proliferation of hair papilla cells, ornithine (Cell Counting kit-8); conditions: cultured one day, P<0.05 or P<0.01, FIG. 6
Procedure: In the same manner as in Experimental Example 1, human hair papilla cells were cultured for 4 days, and seeded on a collagen-coated 96 well plate at a cell density of 2.5×10^3 cells/0.1 mL/well. The cells were cultured for one day in a carbon dioxide incubator (5 volume % carbon dioxide, 37° C.), and used for the evaluation of the proliferation of hair papilla cells. For the evaluation of the proliferation of hair papilla cells, a medium having the same amino acid composition as the evaluation medium used in Experimental Example 1 and other components diluted at a ¼ concentration was used as the evaluation medium.
L-ornithine was dissolved in the above-mentioned evaluation medium to prepare a solution. […]
Then the Cell Counting kit-8 (DOJINDO LABORATORIES) was added to each well by 10 μL, the plate was placed in a carbon dioxide incubator (5 volume % carbon dioxide, 37° C.) for 2 hr, and the absorbance at 450 nm was measured using a microplate reader. […]
The measurement results were converted to relative values (%) with the absorbance in the control as 100, and shown as mean±standard error in FIG. 6.

Compound: NC(=O)NCCCC(N)C(=O)O [L-citrulline, 2-amino-5-(carbamoylamino)pentanoic acid]
- addition concentration at which a significant increase in the VEGF production was observed ([1]; P<0.01 or P<0.001, FIG. 1): not less than 4.56 μM
- number of hair papilla cells as compared with the control (human hair papilla cells [2]): significant increase

Compound: NC(=O)CCC(N)C(=O)O [L-glutamine, 2-amino-4-carbamoylbutanoic acid]
- addition concentration at which a significant increase in the VEGF production was observed ([1]; P<0.01 or P<0.001, FIGS. 2, 3): not less than 0.44 mM

Compound: NCCCC(N)C(=O)O [L-ornithine, 2,5-diamino pentanoic acid]
- addition concentration at which a significant increase in the FGF7 production amount was observed [3]: not less than 151 μM
- number of hair papilla cells as compared with the control (human hair papilla cells [4]; 756 μM): significant increase
- number of hair papilla cells as compared with the control (human hair papilla cells [4]; 3.7 mM): significant increase

Compound: N[C@@H](Cc1c[nH]c2ccccc12)C(=O)O [L-tryptophan, 2-amino-3-(indolyl)propionic acid]
- addition concentration at which a significant increase in the VEGF production was observed ([1]; P<0.01 or P<0.001, FIGS. 2, 3): not less than 0.01 mM
